Measured values as given in publication doi:10.1101/2024.08.19.608619, “Discovery of potent SARS-CoV-2 nsp3 macrodomain inhibitors uncovers lack of translation to cellular antiviral response” (bioRxiv, 2024).
≈ marks a conversion by molar mass, not a printed value. Where “and” joins values, the source holds several entries; their conditions need not be identical. Equal values may be shown once. Read-outs that look alike come from different tables or passages of the source.

Assays:
[1] = molecular target: T1, PI3 Kinase (p110δ/p85α)(h) (Homo sapiens, UniProt O00329); test: biochemical; design: In vitro kinase panel profiling, per cent remaining kinase activity at 10 uM; details: atp_concentration=200, read-out: % of control remaining
T1 construct: gene PIK3CD
T1 sequence (O00329 whole entry): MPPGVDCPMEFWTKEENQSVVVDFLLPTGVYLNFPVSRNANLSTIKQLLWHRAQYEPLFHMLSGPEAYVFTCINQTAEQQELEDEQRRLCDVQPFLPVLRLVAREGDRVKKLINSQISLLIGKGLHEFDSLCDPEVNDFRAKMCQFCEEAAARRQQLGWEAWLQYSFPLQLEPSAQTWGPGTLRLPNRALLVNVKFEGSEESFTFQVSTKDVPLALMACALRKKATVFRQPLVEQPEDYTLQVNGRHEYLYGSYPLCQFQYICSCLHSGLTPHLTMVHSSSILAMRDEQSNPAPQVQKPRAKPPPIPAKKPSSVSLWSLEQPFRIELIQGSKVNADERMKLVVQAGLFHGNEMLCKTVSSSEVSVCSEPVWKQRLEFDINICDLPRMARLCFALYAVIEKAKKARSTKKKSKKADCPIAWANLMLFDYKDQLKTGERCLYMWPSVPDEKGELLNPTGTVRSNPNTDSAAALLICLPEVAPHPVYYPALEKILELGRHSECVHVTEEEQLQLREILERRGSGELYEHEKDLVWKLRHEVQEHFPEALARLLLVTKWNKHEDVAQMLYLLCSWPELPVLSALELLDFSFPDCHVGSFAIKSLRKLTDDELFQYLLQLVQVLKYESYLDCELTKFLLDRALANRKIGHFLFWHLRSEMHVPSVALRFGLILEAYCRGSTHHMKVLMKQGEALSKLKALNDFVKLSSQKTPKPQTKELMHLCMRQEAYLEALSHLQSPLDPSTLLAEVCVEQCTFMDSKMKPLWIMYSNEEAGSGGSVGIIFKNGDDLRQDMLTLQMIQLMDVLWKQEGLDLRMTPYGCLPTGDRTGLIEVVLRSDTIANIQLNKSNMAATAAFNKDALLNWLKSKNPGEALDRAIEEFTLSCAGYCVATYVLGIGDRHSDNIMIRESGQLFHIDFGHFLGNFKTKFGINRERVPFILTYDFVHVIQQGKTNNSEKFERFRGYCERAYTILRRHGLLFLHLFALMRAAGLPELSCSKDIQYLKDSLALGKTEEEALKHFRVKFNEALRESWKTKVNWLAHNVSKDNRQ
T1 sequence (P27986 whole entry partner): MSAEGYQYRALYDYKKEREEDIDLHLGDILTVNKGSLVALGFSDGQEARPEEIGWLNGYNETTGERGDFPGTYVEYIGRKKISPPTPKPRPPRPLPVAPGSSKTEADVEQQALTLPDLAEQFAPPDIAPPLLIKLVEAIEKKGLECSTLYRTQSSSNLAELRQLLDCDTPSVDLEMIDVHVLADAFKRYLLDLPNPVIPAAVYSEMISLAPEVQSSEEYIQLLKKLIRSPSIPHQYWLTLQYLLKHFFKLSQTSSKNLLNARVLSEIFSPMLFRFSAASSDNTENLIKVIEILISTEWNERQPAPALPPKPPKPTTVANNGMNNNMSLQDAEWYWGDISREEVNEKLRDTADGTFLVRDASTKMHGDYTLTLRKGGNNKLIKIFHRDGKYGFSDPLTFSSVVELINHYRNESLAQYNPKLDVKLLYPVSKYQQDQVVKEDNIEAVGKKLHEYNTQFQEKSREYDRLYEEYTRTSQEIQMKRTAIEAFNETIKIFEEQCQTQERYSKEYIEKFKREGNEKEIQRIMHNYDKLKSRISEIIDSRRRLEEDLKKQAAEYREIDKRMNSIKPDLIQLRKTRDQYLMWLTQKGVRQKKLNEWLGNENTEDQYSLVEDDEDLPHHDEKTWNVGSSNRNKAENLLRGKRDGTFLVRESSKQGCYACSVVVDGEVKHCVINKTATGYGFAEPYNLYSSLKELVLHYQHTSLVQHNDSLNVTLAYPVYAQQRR
Description: (§1) We derisk potential for off-target activity by profiling the compound in a CEREP panel, a standard secondary pharmacology assessment, as well as a kinase panel to derisk a potential hinge-binding motif in our leads, and a PARP panel to derisk activity against human […]. Reassuringly, the compounds are selective, with the only off-targets being moderate human CHRM2 and KOR receptors activity associated with ASAP-0011198.

IGF-1R(h) = molecular target: T2, IGF-1R(h) (Homo sapiens, UniProt P08069); test: biochemical; design: In vitro kinase panel profiling, per cent remaining kinase activity at 10 uM; details: atp_concentration=200, read-out: % of control remaining
T2 construct: gene IGF1R
Description: as §1

ROCK-I(h) = molecular target: T3, ROCK-I(h) (Homo sapiens, UniProt Q13464); test: biochemical; design: In vitro kinase panel profiling, per cent remaining kinase activity at 10 uM; details: atp_concentration=70, read-out: % of control remaining
T3 construct: gene ROCK1
T3 sequence (Q13464 whole entry): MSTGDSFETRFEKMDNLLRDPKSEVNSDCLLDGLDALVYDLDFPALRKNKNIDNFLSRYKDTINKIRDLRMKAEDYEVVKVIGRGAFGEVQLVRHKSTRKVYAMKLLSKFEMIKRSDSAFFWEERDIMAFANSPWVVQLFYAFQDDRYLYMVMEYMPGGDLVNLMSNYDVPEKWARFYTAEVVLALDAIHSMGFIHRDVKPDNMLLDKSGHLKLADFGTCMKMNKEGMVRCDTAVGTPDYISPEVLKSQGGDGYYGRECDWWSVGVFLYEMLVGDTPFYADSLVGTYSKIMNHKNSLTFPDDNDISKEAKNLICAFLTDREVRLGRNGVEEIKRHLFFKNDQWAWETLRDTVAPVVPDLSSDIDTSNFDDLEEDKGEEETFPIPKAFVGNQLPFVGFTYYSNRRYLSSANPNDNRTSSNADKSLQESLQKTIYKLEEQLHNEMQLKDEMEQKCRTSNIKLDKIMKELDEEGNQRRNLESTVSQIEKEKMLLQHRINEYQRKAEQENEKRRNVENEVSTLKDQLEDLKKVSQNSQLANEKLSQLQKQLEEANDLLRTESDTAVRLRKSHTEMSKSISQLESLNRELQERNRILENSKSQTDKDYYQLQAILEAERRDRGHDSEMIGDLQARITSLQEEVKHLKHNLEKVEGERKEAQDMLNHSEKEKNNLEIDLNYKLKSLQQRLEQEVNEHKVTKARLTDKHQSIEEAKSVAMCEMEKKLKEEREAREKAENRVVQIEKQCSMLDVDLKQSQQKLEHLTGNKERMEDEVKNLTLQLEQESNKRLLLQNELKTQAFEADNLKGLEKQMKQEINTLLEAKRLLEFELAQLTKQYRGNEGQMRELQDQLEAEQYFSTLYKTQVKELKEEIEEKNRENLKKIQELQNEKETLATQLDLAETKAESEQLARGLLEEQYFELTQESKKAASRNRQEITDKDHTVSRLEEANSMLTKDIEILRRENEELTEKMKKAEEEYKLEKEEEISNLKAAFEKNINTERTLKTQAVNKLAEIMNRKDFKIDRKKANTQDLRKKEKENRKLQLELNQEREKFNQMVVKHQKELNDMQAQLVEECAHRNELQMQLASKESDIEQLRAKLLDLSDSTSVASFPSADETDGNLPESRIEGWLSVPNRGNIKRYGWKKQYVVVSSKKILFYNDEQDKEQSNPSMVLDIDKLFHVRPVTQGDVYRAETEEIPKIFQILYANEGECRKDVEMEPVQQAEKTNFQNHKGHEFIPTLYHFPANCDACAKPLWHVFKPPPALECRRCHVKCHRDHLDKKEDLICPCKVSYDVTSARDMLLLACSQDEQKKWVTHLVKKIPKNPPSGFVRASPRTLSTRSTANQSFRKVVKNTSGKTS
Description: as §1

NEK2(h) = molecular target: T4, NEK2(h) (Homo sapiens, UniProt P51955); test: biochemical; design: In vitro kinase panel profiling, per cent remaining kinase activity at 10 uM; details: atp_concentration=120, read-out: % of control remaining
T4 sequence (P51955 1-445): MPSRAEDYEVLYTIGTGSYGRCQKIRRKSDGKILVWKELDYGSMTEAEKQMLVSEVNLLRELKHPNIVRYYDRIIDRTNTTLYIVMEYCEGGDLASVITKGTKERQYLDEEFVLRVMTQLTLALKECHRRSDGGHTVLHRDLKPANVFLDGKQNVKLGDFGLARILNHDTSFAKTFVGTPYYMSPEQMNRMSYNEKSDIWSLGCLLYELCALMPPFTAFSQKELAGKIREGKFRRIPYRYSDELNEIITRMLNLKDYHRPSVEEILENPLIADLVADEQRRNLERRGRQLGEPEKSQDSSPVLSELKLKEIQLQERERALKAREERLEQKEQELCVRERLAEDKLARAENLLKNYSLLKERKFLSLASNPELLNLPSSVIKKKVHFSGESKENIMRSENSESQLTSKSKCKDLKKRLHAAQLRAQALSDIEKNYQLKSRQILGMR
Description: as §1

MSK2(h) = molecular target: T5, MSK2(h) (Homo sapiens, UniProt O75676); test: biochemical; design: In vitro kinase panel profiling, per cent remaining kinase activity at 10 uM; details: atp_concentration=45, read-out: % of control remaining
T5 construct: gene RPS6KA4
T5 sequence (O75676 whole entry): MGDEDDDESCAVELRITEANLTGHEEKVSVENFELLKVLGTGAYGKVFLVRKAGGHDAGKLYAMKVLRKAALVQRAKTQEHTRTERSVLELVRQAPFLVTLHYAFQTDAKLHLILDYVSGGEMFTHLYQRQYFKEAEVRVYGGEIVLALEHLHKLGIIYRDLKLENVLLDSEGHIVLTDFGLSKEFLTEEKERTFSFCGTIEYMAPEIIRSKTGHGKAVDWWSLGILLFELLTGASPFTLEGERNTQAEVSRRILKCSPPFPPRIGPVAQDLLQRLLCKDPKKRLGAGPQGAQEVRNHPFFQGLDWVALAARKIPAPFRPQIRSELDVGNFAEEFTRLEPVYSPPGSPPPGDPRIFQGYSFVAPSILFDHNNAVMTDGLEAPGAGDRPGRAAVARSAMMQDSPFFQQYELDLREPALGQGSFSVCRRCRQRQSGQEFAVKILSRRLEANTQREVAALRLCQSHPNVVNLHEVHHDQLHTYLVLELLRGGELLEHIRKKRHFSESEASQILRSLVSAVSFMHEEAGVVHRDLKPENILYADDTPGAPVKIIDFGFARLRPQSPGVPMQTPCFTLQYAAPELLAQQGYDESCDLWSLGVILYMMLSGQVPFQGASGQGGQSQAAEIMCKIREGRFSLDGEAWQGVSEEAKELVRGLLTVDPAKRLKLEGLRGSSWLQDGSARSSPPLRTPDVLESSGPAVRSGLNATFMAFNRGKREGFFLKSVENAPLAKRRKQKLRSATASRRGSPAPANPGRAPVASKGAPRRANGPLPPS
Description: as §1

PKA(h) = molecular target: T6, PKA(h) (Homo sapiens, UniProt P17612); test: biochemical; design: In vitro kinase panel profiling, per cent remaining kinase activity at 10 uM; details: atp_concentration=10, read-out: % of control remaining
T6 construct: gene PRKACA
Description: as §1

TAK1(h) = molecular target: T7, TAK1(h) (Homo sapiens, UniProt O43318); test: biochemical; design: In vitro kinase panel profiling, per cent remaining kinase activity at 10 uM; details: atp_concentration=45, read-out: % of control remaining
T7 construct: gene MAP3K7
T7 sequence (O43318 1-606): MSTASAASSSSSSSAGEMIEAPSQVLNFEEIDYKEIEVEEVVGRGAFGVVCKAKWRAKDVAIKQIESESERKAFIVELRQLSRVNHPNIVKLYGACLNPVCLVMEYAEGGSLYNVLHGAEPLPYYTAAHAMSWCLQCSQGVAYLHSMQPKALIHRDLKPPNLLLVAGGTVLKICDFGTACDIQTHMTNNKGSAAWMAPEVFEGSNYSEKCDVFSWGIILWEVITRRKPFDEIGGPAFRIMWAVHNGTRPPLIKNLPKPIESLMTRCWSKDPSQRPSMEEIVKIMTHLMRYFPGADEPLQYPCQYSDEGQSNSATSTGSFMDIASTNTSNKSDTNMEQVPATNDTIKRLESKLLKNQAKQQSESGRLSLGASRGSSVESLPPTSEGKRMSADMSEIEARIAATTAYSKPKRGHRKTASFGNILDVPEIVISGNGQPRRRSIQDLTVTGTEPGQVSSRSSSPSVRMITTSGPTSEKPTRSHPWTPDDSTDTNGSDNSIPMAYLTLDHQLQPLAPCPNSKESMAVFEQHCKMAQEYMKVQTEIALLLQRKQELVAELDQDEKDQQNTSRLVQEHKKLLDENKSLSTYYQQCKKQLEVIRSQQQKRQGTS
Description: as §1

PDGFRβ(h) = molecular target: T8, PDGFRβ(h) (Homo sapiens, UniProt P09619); test: biochemical; design: In vitro kinase panel profiling, per cent remaining kinase activity at 10 uM; details: atp_concentration=200, read-out: % of control remaining
T8 construct: gene PDGFRB
T8 sequence (P09619 whole entry): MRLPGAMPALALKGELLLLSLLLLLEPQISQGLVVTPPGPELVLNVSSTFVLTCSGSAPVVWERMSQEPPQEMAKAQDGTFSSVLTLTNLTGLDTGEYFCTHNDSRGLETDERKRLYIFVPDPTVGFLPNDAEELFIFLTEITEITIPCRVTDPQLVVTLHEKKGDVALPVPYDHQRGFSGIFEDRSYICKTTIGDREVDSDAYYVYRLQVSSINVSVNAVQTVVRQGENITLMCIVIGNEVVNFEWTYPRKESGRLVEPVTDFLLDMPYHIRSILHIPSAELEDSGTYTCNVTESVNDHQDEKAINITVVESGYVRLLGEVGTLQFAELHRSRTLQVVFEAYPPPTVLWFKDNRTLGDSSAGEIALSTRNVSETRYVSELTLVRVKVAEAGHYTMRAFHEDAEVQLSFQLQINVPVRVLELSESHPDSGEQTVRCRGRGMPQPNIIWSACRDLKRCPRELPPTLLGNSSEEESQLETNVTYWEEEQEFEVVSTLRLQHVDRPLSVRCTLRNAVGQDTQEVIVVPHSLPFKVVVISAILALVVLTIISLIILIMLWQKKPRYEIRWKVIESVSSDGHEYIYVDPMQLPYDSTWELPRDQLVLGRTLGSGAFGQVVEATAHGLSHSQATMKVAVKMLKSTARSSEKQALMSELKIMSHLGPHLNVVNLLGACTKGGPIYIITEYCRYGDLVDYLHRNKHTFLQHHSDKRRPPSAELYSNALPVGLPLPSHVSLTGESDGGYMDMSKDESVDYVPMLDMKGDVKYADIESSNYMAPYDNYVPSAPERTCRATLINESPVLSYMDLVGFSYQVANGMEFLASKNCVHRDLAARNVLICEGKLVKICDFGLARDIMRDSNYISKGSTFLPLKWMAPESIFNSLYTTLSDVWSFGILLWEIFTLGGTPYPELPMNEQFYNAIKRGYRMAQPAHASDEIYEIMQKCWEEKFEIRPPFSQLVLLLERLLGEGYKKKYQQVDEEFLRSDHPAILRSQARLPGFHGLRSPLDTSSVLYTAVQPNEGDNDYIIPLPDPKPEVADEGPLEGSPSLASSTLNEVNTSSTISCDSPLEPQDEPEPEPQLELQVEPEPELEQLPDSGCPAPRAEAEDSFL
Description: as §1

mTOR(h) = mTOR(h) (Homo sapiens, UniProt P42345); test: biochemical; design: In vitro kinase panel profiling, per cent remaining kinase activity at 10 uM; details: atp_concentration=70, read-out: % of control remaining
Description: as §1

[2] = In vitro kinetic solubility; details: for solubility_mean: In vitro kinetic solubility, ph 7.4

CC(C)[C@@H](Nc1ncnc2[nH]c(-c3cnn(C)c3C#N)cc12)c1ccc2c(n1)OCCO2 [ASAP-0008418]
remaining activity at 10 µM ([1]; batch_name=ASAP-0008418-001): 55% | remaining activity at 10 µM (IGF-1R(h); batch_name=ASAP-0008418-001): 108% | remaining activity at 10 µM (ROCK-I(h); batch_name=ASAP-0008418-001): 93% | remaining activity at 10 µM (NEK2(h); batch_name=ASAP-0008418-001): 94% | remaining activity at 10 µM (MSK2(h); batch_name=ASAP-0008418-001): 103% | remaining activity at 10 µM (PKA(h); batch_name=ASAP-0008418-001): 92% | remaining activity at 10 µM (TAK1(h); batch_name=ASAP-0008418-001): 103% | remaining activity at 10 µM (PDGFRβ(h); batch_name=ASAP-0008418-001): 108% | remaining activity at 10 µM (mTOR(h); batch_name=ASAP-0008418-001): 83% | logd (LogD; pH 7.4, In vitro LogD): 3.4 and 3.6 | solubility_mean [2]: 89 µM and 60 µM

CC(C)[C@@H](Nc1ncnc2[nH]c(-c3cnn(C)c3C#N)cc12)c1ccc2c(n1)OCCO2 [ASAP-0010716]
remaining activity at 10 µM ([1]; batch_name=ASAP-0010716-002): 61% | remaining activity at 10 µM (IGF-1R(h); batch_name=ASAP-0010716-002): 94% | remaining activity at 10 µM (ROCK-I(h); batch_name=ASAP-0010716-002): 107% | remaining activity at 10 µM (NEK2(h); batch_name=ASAP-0010716-002): 76% | remaining activity at 10 µM (MSK2(h); batch_name=ASAP-0010716-002): 122% | remaining activity at 10 µM (PKA(h); batch_name=ASAP-0010716-002): 93% | remaining activity at 10 µM (TAK1(h); batch_name=ASAP-0010716-002): 100% | remaining activity at 10 µM (PDGFRβ(h); batch_name=ASAP-0010716-002): 93% | remaining activity at 10 µM (mTOR(h); batch_name=ASAP-0010716-002): 102% | logd (LogD; pH 7.4, In vitro LogD): 3.9 | solubility_mean [2]: 50 µM (≈ 21.5 µg/mL)

Cc1nn(C)cc1-c1cc2c(NC(c3ccc4c(c3)S(=O)(=O)CCC4)C(C)C)ncnc2[nH]1 (stereo not shown) [ASAP-0011446]
remaining activity at 10 µM ([1]; batch_name=ASAP-0011446-002): 101% | remaining activity at 10 µM (IGF-1R(h); batch_name=ASAP-0011446-002): 97% | remaining activity at 10 µM (ROCK-I(h); batch_name=ASAP-0011446-002): 103% | remaining activity at 10 µM (NEK2(h); batch_name=ASAP-0011446-002): 98% | remaining activity at 10 µM (MSK2(h); batch_name=ASAP-0011446-002): 105% | remaining activity at 10 µM (PKA(h); batch_name=ASAP-0011446-002): 95% | remaining activity at 10 µM (TAK1(h); batch_name=ASAP-0011446-002): 100% | remaining activity at 10 µM (PDGFRβ(h); batch_name=ASAP-0011446-002): 97% | remaining activity at 10 µM (mTOR(h); batch_name=ASAP-0011446-002): 96% | logd (LogD): 3.1 | logd (LogD; pH 7.4): 3.1 | solubility kinetic [2]: 65 µM (≈ 30.2 µg/mL) | solubility ([2]; pH 7.4): 65 µM (≈ 30.2 µg/mL)

COc1ccc([C@H](Cc2nnn[nH]2)NC(=O)c2ncnc3[nH]ccc23)cc1 [ASAP-0015381]
remaining activity at 10 µM ([1]; batch_name=ASAP-0015381-001): 97% | remaining activity at 10 µM (IGF-1R(h); batch_name=ASAP-0015381-001): 103% | remaining activity at 10 µM (ROCK-I(h); batch_name=ASAP-0015381-001): 103% | remaining activity at 10 µM (NEK2(h); batch_name=ASAP-0015381-001): 106% | remaining activity at 10 µM (MSK2(h); batch_name=ASAP-0015381-001): 103% | remaining activity at 10 µM (PKA(h); batch_name=ASAP-0015381-001): 88% | remaining activity at 10 µM (TAK1(h); batch_name=ASAP-0015381-001): 99% | remaining activity at 10 µM (PDGFRβ(h); batch_name=ASAP-0015381-001): 103% | remaining activity at 10 µM (mTOR(h); batch_name=ASAP-0015381-001): 97% | logd (LogD; pH 7.4, In vitro LogD): -0.5 | solubility_mean [2]: 367 µM (≈ 134 µg/mL)
